Series [1] deals with T1, Sortilin/Progranulin (Homo sapiens, UniProt P28799+Q99523).
T1 sequence (Q99523 whole entry): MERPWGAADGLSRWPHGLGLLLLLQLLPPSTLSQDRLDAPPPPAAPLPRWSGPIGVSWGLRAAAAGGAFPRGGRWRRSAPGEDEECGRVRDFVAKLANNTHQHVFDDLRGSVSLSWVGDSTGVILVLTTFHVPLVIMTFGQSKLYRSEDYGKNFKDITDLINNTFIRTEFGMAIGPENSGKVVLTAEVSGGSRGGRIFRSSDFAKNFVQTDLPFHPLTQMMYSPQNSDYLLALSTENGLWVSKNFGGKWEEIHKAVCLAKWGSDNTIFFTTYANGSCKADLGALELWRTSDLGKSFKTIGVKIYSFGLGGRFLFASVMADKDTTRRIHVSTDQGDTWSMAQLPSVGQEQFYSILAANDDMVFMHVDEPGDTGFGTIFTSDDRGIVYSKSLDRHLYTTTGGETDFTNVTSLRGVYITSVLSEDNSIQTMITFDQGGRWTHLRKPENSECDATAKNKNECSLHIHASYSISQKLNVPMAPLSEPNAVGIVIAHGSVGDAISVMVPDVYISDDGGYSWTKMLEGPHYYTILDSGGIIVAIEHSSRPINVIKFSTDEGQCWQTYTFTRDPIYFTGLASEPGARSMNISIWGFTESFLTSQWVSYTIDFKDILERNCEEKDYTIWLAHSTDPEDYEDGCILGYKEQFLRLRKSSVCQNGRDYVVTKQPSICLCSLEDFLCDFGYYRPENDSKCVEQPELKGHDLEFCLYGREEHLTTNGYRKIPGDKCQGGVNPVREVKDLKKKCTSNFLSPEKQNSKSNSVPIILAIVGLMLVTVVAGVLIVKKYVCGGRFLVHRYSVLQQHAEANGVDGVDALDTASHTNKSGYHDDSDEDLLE
T1 sequence (P28799 whole entry): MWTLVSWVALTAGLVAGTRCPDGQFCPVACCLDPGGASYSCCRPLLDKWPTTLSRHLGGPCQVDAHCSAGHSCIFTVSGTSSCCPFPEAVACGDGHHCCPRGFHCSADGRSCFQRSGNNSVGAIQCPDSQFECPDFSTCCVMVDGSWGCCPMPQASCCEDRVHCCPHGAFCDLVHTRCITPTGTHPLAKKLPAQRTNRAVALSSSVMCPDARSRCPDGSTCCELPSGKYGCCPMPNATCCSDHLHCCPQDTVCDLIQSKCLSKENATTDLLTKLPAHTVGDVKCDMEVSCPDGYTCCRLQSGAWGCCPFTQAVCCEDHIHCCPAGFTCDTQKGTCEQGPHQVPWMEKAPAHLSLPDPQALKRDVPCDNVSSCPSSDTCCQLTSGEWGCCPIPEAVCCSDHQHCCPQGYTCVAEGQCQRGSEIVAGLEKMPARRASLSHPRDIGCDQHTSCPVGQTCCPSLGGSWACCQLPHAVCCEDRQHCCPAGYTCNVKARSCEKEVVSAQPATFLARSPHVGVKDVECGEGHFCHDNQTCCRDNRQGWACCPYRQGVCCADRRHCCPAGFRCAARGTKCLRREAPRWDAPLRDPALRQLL
Kind of series: Inhibition of SORT1 (unknown origin)-GRN (unknown origin) protein-protein interaction by HTRF assay.

Series [2] in a line: Protein binding in rat plasma. The series is classed as ADME, cell-free. The following applies: read-out: PPB (converted).
Series [3] is described as follows: Solubility of the compound at pH 2. In kind it is physicochemical. The following applies: buffer.
Series [4] can be described thus: Solubility of the compound at pH 7. In kind it is physicochemical. The following applies: buffer.
In series [5] the test system is P-gp. In words: Substrate activity at rat P-gp assessed as efflux ratio. In kind it is ADME. The settings on record: not told.
The subject of series [6] is P-gp. Kind of series: Substrate activity at human P-gp in MDR1 cells assessed as efflux ratio. In kind it is ADME, cell-based.
A short description of series [7]: Apparent permeability of the compound. In kind it is ADME. The settings on record: not told.
The nature of series [8]: Clearance in rat. The series is classed as ADME. The following applies: in vivo.
The nature of series [9]: Unbound clearance in rat. The series is classed as ADME. The settings on record: in vivo.
Series [10] in a line: Half life in rat. In kind it is ADME. The following applies: in vivo.
Series [11] can be described thus: Oral bioavailability in rat. In kind it is ADME, organism-based. The settings on record: in vivo.
Series [12] deals with T1, Sortilin/Progranulin. Kind of series: Inhibition of SORT1 (unknown origin)-GRN (unknown origin) protein-protein interaction assessed as increase in progranulin level by cell-based ELISA. Background: An ELISA detects its analyte on a solid surface through an enzyme-linked reagent.

pIC50: −log10 of the molar value. Converted amounts (≈) assume the structure as drawn.

As for `COc1cccc(C(=O)N[C@@H](CC(C)C)C(=O)O)c1`, the pIC50 at Sortilin/Progranulin [1] is 5.17.
The same measure, in the same setting: with `Cn1nc(C(C)(C)C)cc1C(=O)O` the figure was 5.08.
At Sortilin/Progranulin [1], `CC(C)C[C@H](NC(=O)C1CCCC1)C(=O)O` showed a negative-log IC50 (pIC50) of 4.60.
The same measure, in the same setting: with `CC(C)C[C@H](NC(=O)c1cnc2ccccc2n1)C(=O)O` the figure was 5.20.
On to `CC(C)(C)CC[C@H](NC(=O)c1cc(Cl)cc(Cl)c1)C(=O)O`, for which the values for the negative logarithm of the IC50 (pIC50) on Sortilin/Progranulin [1] and at Sortilin/Progranulin [12] were 6.77 and 6.19, respectively. In series [2], the fraction unbound was 0.0028. In addition, the solubility in [3] came out at 69 µM (≈ 22.9 µg/mL); in series [4], 134 µM (≈ 44.5 µg/mL). In addition, the efflux ratio in the series with P-gp [5] worked out at 3.9; in the series on P-gp [6], 1.8. The Papp in series [7] is 23 ×10⁻⁶ cm/s. The compound further came in with a clearance in series [8] of 0.6 mL/min/kg. Also, in series [9], the CL free is 215 mL/min/kg. In series [10], this compound had a half-life of 354 min. In addition, in [11], the bioavailability came to 100%.
Compound `C=C(C)C[C@H](NC(=O)c1cc(Cl)cc(Cl)c1)C(=O)O` had a pIC50 against Sortilin/Progranulin [1] of 4.77.
Still for that read-out and setting: with `CC(C)C[C@H](NC(=O)C1CN(Cc2cc(Cl)cc(Cl)c2)CCO1)C(=O)O` (stereo not given in full) the figure was 4.84; with `CC(C)(C)c1cc(C(=O)O)n(-c2ccccc2)n1`, 5.11.
Regarding `O=C(N[C@@H](CC12CC(C1)C2)C(=O)O)c1cc(Cl)cc(Cl)c1`, the pIC50 against Sortilin/Progranulin [1] was 4.74.
Still for that read-out and setting: with `CC(C)(C)CCc1cc(C(=O)O)n(Cc2ccccc2)n1` the figure was < 4.17.
The compound `CC(C)(C)c1cc(C(=O)O)n(Cc2ccccc2)n1` had a pIC50 against Sortilin/Progranulin [1] of 5.70.
Same read-out and setting: with `CC(C)(C)OC[C@H](NC(=O)c1cc(Cl)cc(Cl)c1)C(=O)O` the figure was 5.82.
Turning to `CC(C)(C)CC[C@H](NC(=O)c1cc(Cl)c[nH]1)C(=O)O`, the results for the negative-log IC50 (pIC50) at Sortilin/Progranulin [1] and at Sortilin/Progranulin [12] were 7.05 and 6.54, respectively. Also, the fraction unbound in series [2] was 0.0216. In addition, the solubility amounted to 123 µM (≈ 35.3 µg/mL) in series [3] and 135 µM (≈ 38.7 µg/mL) in series [4]. Besides, the efflux ratio in the series on P-gp [5] amounted to 1.3; in the series on P-gp [6] it was 2. Moreover, the Papp in series [7] was determined as 4.8 ×10⁻⁶ cm/s. This compound registered a clearance in series [8] of 2.8 mL/min/kg. The CL free in series [9] turned out to be 134 mL/min/kg. Also, the half-life in series [10] was 90 min.
`CC(C)(C)C[C@H](NC(=O)c1ccc(Oc2ccccc2)nc1)C(=O)O` had a negative logarithm of the IC50 (pIC50) at Sortilin/Progranulin [1] of 7.19.
The same measure, in the same setting: as for `CC(C)c1cc(C(=O)O)n(CCc2ccccc2)n1`, the figure is < 4.17.
As to `CC(C)(C)CC[C@H](NC(=O)c1ccc(Oc2ccccc2)nc1)C(=O)O`, the pIC50 on Sortilin/Progranulin [1] was 7.70; at Sortilin/Progranulin [12] it was 6.92. The fraction unbound in series [2] is 0.0077. The solubility in [3] came out at 126 µM (≈ 44.9 µg/mL); in series [4], 147 µM (≈ 52.4 µg/mL). Further, the efflux ratio with P-gp [5] came to 3.5; in the series on P-gp [6], 2.2. The Papp in [7] is 7 ×10⁻⁶ cm/s. The compound also had a clearance in [8] of 3.35 mL/min/kg. In [9], this compound returned a CL free of 453 mL/min/kg. The compound also had a half-life in [10] of 96 min.
On to `CC(C)(C)c1cc(C(=O)O)n(CCc2ccccc2)n1`, for which the negative-log IC50 (pIC50) against Sortilin/Progranulin [1] is 5.28.
Consider `O=C(N[C@@H](Cc1ccccc1)C(=O)O)c1cc(Cl)cc(Cl)c1`, for which, at Sortilin/Progranulin [1], the pIC50 is < 4.17.
Still for that read-out and setting: as for `O=C(N[C@@H](CC1CCCCC1)C(=O)O)c1cc(Cl)cc(Cl)c1`, the figure is 5.64; as for `CC(OC(C)(C)C)[C@H](NC(=O)c1cc(Cl)cc(Cl)c1)C(=O)O` (stereo not given in full), < 4.17; as for `CC(C)C[C@H](NC(=O)c1cccc(Cl)c1)C(=O)O`, 5.35.
Same read-out and setting: with `O=C(N[C@@H](CC1CC1)C(=O)O)c1cc(Cl)cc(Cl)c1` the figure was 4.97.
The same measure, in the same setting: with `CC(C)(C)C[C@H](NC(=O)c1cc(Cl)cc(Cl)c1)C(=O)O` the figure was 6.46; with `CC(C)C[C@H](NC(=O)C(C)(C)Cc1ccc(Cl)cc1)C(=O)O`, 5.17; with `CC(C)C[C@H](NC(=O)c1cnn(C)c1)C(=O)O`, 5.28.
Compound `CC(C)(C)c1cc(C(=O)O)n(Cc2ccc(Oc3ccccc3)nc2)n1` had a negative-log IC50 (pIC50) at Sortilin/Progranulin [1] of 5.68.
`CC(C)(C)c1cc(C(=O)O)n(Cc2cc(Cl)cc(Cl)c2)n1` showed a negative logarithm of the IC50 (pIC50) at Sortilin/Progranulin [1] of 5.68.
On the same count and under the same terms, as for `CC(C)C[C@H](NC(=O)c1ccc(Cl)c(Cl)c1)C(=O)O`, the figure is 5.37.
Same read-out and setting: with `CC(C)C[C@H](NC(=O)c1cc(Cl)cc(Cl)c1)C(=O)O` the figure was 5.57; with `CC(C)(C)c1cc(C(=O)O)n(Cc2ccc(-n3cccn3)nc2)n1`, 5.52; with `CC(C)C[C@H](NC(c1cc(Cl)cc(Cl)c1)C(F)(F)F)C(=O)O` (stereo not given in full), 4.97.
On the same count and under the same terms, with `CC(C)(C)c1cc(C(=O)O)n(Cc2nnc(-c3ccccc3)o2)n1` the figure was 6.31; with `CC(C)(C)Cc1cc(C(=O)O)n(Cc2ccccc2)n1`, 5.18; with `CC(C)(C)CC(NC(=O)c1cc(Cl)cc(Cl)c1)c1nn[nH]n1` (racemic), 5.16.

The term pIC50 denotes the IC50 on a negative log10 scale, so that one unit is a factor of ten. As usually defined, the solubility is the concentration that dissolves in the medium under given conditions. High values mean much dissolved substance, low ones little dissolved substance. By efflux ratio is commonly meant the permeability from basolateral to apical divided by that in the opposite direction, in the common usage. As usually defined, the Papp is a coefficient for how fast a substance crosses the barrier. For orientation: clearance means the rate of elimination divided by the concentration. Low readings indicate inefficient removal, high ones efficient removal. What is called half-life is how long it takes for the measured level to halve. A low value points to rapid decline. The term bioavailability denotes dose-corrected exposure relative to a reference, in per cent.
